From publication PMC6166404 (Journal of medicinal chemistry, 2018)

Legend:
[1] = test system: Mtb strain SRMV2.6 (MtbIMPDH2/Y487C); type: cell-based, Mycobacterium tuberculosis
MtbIMPDH2ΔCBS = MtbIMPDH2ΔCBS (Mycobacterium tuberculosis, UniProt P9WKI7, R252G); type: biochemical; settings: for Ki: read-out: Ki,app MtbIMPDH2
MtbIMPDH2/Y487C = MtbIMPDH2/Y487C (Mycobacterium tuberculosis, UniProt P9WKI7, Y487C); type: biochemical

Molecule: COc1ccc(OC(C)C(=O)Nc2ccc3oc(-c4ccncc4)nc3c2)cc1 (stereo not drawn) [Compound 1, reference compound]
- MIC SRMV2.6 [1]: >100 µM
- susceptibility of strain SRMV2.6 [1]: resistant

Molecule: COc1ccc(-c2nc3cc(NC(=O)[C@H](C)Oc4cccc(Cl)c4Cl)ccc3o2)cn1 [Compound 8c, (S)-2-(2,3-dichlorophenoxy)-N-(2-(6-methoxypyridin-3-yl)benzo[d]oxazol-5-yl)propanamide]
- fold increase in MtbIMPDH2ΔCBS inhibitory activity compared to 2 (MtbIMPDH2ΔCBS): 5 fold

Molecule: COc1ccc(-c2nc3cc(NC(=O)[C@H](C)Oc4cccc(Cl)c4Cl)ccc3o2)cc1 [Compound 8d, (S)-2-(2,3-Dichlorophenoxy)-N-(2-(4-methoxyphenyl)benzo[d]oxazol-5-yl)propanamide]
- fold increase in MtbIMPDH2ΔCBS inhibitory activity compared to 2 (MtbIMPDH2ΔCBS): 7 fold

Molecule: C[C@H](Oc1cccc(Cl)c1Cl)C(=O)Nc1ccc2oc(-c3ccc(OC(F)(F)F)cc3)nc2c1 [Compound 8e, (S)-2-(2,3-Dichlorophenoxy)-N-(2-(4-(trifluoromethoxy)phenyl)benzo[d]oxazol-5-yl)propanamide]
- fold increase in MtbIMPDH2ΔCBS inhibitory activity compared to 2 (MtbIMPDH2ΔCBS): 7 fold

Molecule: C[C@H](Oc1cccc(Cl)c1Cl)C(=O)Nc1ccc2oc(-c3ccc(C#N)cc3)nc2c1 [Compound 8f, (S)-N-(2-(4-Cyanophenyl)benzo[d]oxazol-5-yl)-2-(2,3-dichlorophenoxy)propanamide]
- fold increase in MtbIMPDH2ΔCBS inhibitory activity compared to 2 (MtbIMPDH2ΔCBS): 7 fold

Molecule: C[C@H](Oc1cccc(Cl)c1Cl)C(=O)Nc1ccc2oc(-c3ccc(O)cc3)nc2c1 [Compound 8i, (S)-2-(2,3-Dichlorophenoxy)-N-(2-(4-hydroxyphenyl)benzo[d]oxazol-5-yl)propanamide]
- fold increase in MtbIMPDH2ΔCBS inhibitory activity compared to 2 (MtbIMPDH2ΔCBS): 2 fold

Molecule: COc1ccc(Cc2nc3cc(NC(=O)[C@H](C)Oc4cccc(Cl)c4Cl)ccc3o2)cc1 [Compound 15, (S)-2-(2,3-dichlorophenoxy)-N-(2-(4-methoxybenzyl)benzo[d]oxazol-5-yl)prop-anamide]
- factor of reduced activity compared to 8d (MtbIMPDH2ΔCBS): 6

Molecule: C[C@H](Nc1cccc(F)c1F)C(=O)Nc1ccc2oc(-c3ccc(C#N)cc3)nc2c1 [Compound 17b, (S)-N-(2-(4-Cyanophenyl)benzo[d]oxazol-5-yl)-2-((2,3-difluorophenyl)amino)propanamide]
- Ratio Ki,app (Y487C) /Ki,app (WT) (MtbIMPDH2/Y487C): 60
- MIC SRMV2.6 [1]: >100 µM
- susceptibility of strain SRMV2.6 [1]: resistant

Molecule: CCOC(=O)COc1ccc(-c2nc3cc(NC(=O)[C@H](C)Oc4cccc(Cl)c4Cl)ccc3o2)cc1 [Compound 18a, Ethyl (S)-2-(4-(5-(2-(2,3-dichlorophenoxy)propanamido)benzo[d]oxazol-2-yl)phenoxy)acetate]
- susceptibility of strain SRMV2.6 [1]: remained sensitive

Molecule: CCOC(=O)COc1cccc(-c2nc3cc(NC(=O)[C@H](C)Oc4cccc(Cl)c4Cl)ccc3o2)c1 [Compound 18b, Ethyl(S)-2-(3-(5-(2-(2,3-dichlorophenoxy)propanamido)benzo[d]oxazol-2-yl)phenoxy)acetate]
- fold loss in activity on translocating the alkoxy from para to meta position (MtbIMPDH2ΔCBS): 4 fold

Molecule: C[C@H](Oc1cccc(Cl)c1Cl)C(=O)Nc1ccc2oc(-c3cccc(OCC(=O)O)c3)nc2c1 [Compound 19b, (S)-2-(3-(5-(2-(2,3-Dichlorophenoxy)propanamido)benzo[d]oxazol-2-yl)phenoxy)acetic acid]
- fold loss in activity on translocating the alkoxy from para to meta position (MtbIMPDH2ΔCBS): 4 fold

Molecule: C[C@H](Oc1cccc(Cl)c1Cl)C(=O)Nc1ccc2oc(-c3ccc(C(=O)O)cc3)nc2c1 [Compound 22, (S)-4-(5-(2-(2,3-Dichlorophenoxy)propanamido)benzo[d]oxazol-2-yl)benzoic acid]
- susceptibility of strain SRMV2.6 [1]: remained sensitive

Molecule: C[C@H](Oc1cccc(Cl)c1Cl)C(=O)Nc1ccc2oc(-c3ccc(C(=O)NN)cc3)nc2c1 [Compound 23, (S)-2-(2,3-Dichlorophenoxy)-N-(2-(4-(hydrazinecarbonyl)phenyl)benzo[d]oxazol-5-yl)propanamide]
- fold increase in activity on replacing the carboxylate (MtbIMPDH2ΔCBS): 2 to 7 fold

Molecule: C[C@H](Oc1cccc(Cl)c1Cl)C(=O)Nc1ccc2oc(-c3ccc(-c4n[nH]c(=O)o4)cc3)nc2c1 [Compound 24, (S)-2-(2,3-Dichlorophenoxy)-N-(2-(4-(5-oxo-4,5-dihydro-1,3,4-oxadiazol-2-yl)phenyl)benzo[d]oxazol-5-yl)propanamide]
- fold increase in activity on replacing the carboxylate (MtbIMPDH2ΔCBS): 2 to 7 fold

Molecule: C[C@H](Oc1cccc(Cl)c1Cl)C(=O)Nc1ccc2oc(-c3ccc(/C(N)=N\O)cc3)nc2c1 [Compound 25, (S,Z)-2-(2,3-Dichlorophenoxy)-N-(2-(4-(N’-hydroxycarbamimidoyl)phenyl)benzo[d]oxazol-5-yl)propanamide]
- fold increase in activity on replacing the carboxylate (MtbIMPDH2ΔCBS): 2 to 7 fold

Molecule: C[C@H](Oc1cccc(Cl)c1Cl)C(=O)Nc1ccc2oc(-c3ccc(-c4noc(=O)[nH]4)cc3)nc2c1 [Compound 26, (S)-2-(2,3-Dichlorophenoxy)-N-(2-(4-(5-oxo-4,5-dihydro-1,2,4-oxadiazol-3-yl)phenyl)benzo-[d]oxazol-5-yl)propanamide]
- fold increase in activity on replacing the carboxylate (MtbIMPDH2ΔCBS): 2 to 7 fold

Molecule: C[C@H](Oc1cccc(Cl)c1Cl)C(=O)Nc1ccc2oc(-c3ccc(C(N)=O)cc3)nc2c1 [Compound 28, (S)-4-(5-(2-(2,3-Dichlorophenoxy)propanamido)benzo[d]oxazol-2-yl)benzamide]
- fold increase in activity on replacing the carboxylate (MtbIMPDH2ΔCBS): 2 to 7 fold

Molecule: (S)-2-(2,3-Dichlorophenoxy)-N-(2-(2-methoxypyridin-4-yl)benzo[d]oxazol-5-yl)propanamide [Compound 8b]
- fold increase in MtbIMPDH2ΔCBS inhibitory activity compared to 2 (MtbIMPDH2ΔCBS): 5 fold
- Ki (MtbIMPDH2ΔCBS): 12 ± 0.1 nM

Molecule: (S)-2-(2,3-Dichlorophenoxy)-N-(2-(2-oxo-1,2-dihydropyridin-4-yl)benzo[d]oxazol-5-yl)propanamide [Compound 30]
- fold reduction of MtbIMPDH2ΔCBS inhibitory activity compared to 2 (MtbIMPDH2ΔCBS): 3 fold
- Ki (MtbIMPDH2ΔCBS): 220 ± 6 nM
